Measurements published in PubChem BioAssay AID1963441 (Molecular Pharmacology Branch, DTP, NCI, 2024).
“And” between values parts separate entries of the source, which are not always exact repeats. Equal values may be shown once.

System: NCI-H1876 complex spheroid growth, % test/control
Experiment: Anticancer human tumor NCI-H1876 cell line growth inhibition [Asc];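 note: compound exposure lasted 7 days starting three days after seeding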;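 for viability, T/C: 100% = DMSO vehicle control wells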
Settings: for viability, T/C: stronger effect = lower value
Summary of the method: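 Spheroid model: tumor line + HUVEC + hMSC. Single agents and combinations; top conc. at/near clinical Cmax (10 microM if undetermined), half-log dilutions. DMSO stocks at 800-fold test concentration.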

## NC(=O)C(=Cn1cnc(-c2cc(C(F)(F)F)cc(C(F)(F)F)c2)n1)c1cncnc1 + CCN1C(C(=O)NC23CCC(C(=O)O)(CC2)CC3)C(c2cccc(Cl)c2F)C2(C(=O)Nc3cc(Cl)ccc32)C12CCCCC2
Curve of first compound, second compound 0.00949 µM
  IC50: > 300 nM
Curve of first compound, second compound 0.03 µM
  IC50: > 300 nM
Curve of first compound, second compound 0.0949 µM
  IC50: > 300 nM
Curve of first compound, second compound 0.3 µM
  IC50: > 300 nM
Curve of first compound, second compound 0.949 µM
  IC50: > 300 nM
Curve of first compound, second compound 3 µM
  IC50: > 300 nM
Second compound 0.00949 µM, first compound 0.000949 µM
  viability, T/C: 104%
Second compound 0.00949 µM, first compound 0.003 µM
  viability, T/C: 102%
Second compound 0.00949 µM, first compound 0.00949 µM
  viability, T/C: 115%
Second compound 0.00949 µM, first compound 0.03 µM
  viability, T/C: 94%
Second compound 0.00949 µM, first compound 0.0949 µM
  viability, T/C: 100%
Second compound 0.00949 µM, first compound 0.3 µM
  viability, T/C: 64.8%
Second compound 0.03 µM, first compound 0.000949 µM
  viability, T/C: 101%
Second compound 0.03 µM, first compound 0.003 µM
  viability, T/C: 99.3%
Second compound 0.03 µM, first compound 0.00949 µM
  viability, T/C: 96.6%
Second compound 0.03 µM, first compound 0.03 µM
  viability, T/C: 101%
Second compound 0.03 µM, first compound 0.0949 µM
  viability, T/C: 96.2%
Second compound 0.03 µM, first compound 0.3 µM
  viability, T/C: 63.7%
Second compound 0.0949 µM, first compound 0.000949 µM
  viability, T/C: 101%
Second compound 0.0949 µM, first compound 0.003 µM
  viability, T/C: 102%
Second compound 0.0949 µM, first compound 0.00949 µM
  viability, T/C: 100%
Second compound 0.0949 µM, first compound 0.03 µM
  viability, T/C: 98.5%
Second compound 0.0949 µM, first compound 0.0949 µM
  viability, T/C: 102%
Second compound 0.0949 µM, first compound 0.3 µM
  viability, T/C: 71.2%
Second compound 0.3 µM, first compound 0.000949 µM
  viability, T/C: 103%
Second compound 0.3 µM, first compound 0.003 µM
  viability, T/C: 104%
Second compound 0.3 µM, first compound 0.00949 µM
  viability, T/C: 103%
Second compound 0.3 µM, first compound 0.03 µM
  viability, T/C: 103%
Second compound 0.3 µM, first compound 0.0949 µM
  viability, T/C: 105%
Second compound 0.3 µM, first compound 0.3 µM
  viability, T/C: 69.6%
Second compound 0.949 µM, first compound 0.000949 µM
  viability, T/C: 124%
Second compound 0.949 µM, first compound 0.003 µM
  viability, T/C: 104%
Second compound 0.949 µM, first compound 0.00949 µM
  viability, T/C: 104%
Second compound 0.949 µM, first compound 0.03 µM
  viability, T/C: 114%
Second compound 0.949 µM, first compound 0.0949 µM
  viability, T/C: 101%
Second compound 0.949 µM, first compound 0.3 µM
  viability, T/C: 68.5%
Second compound 3 µM, first compound 0.000949 µM
  viability, T/C: 109%
Second compound 3 µM, first compound 0.003 µM
  viability, T/C: 97.4%
Second compound 3 µM, first compound 0.00949 µM
  viability, T/C: 104%
Second compound 3 µM, first compound 0.03 µM
  viability, T/C: 94.8%
Second compound 3 µM, first compound 0.0949 µM
  viability, T/C: 96.1%
Second compound 3 µM, first compound 0.3 µM
  viability, T/C: 55%

## Cc1nc(N2CCC3(CC2)COC(C)C3N)c(CO)nc1Sc1ccnc(N)c1Cl (stereo unspecified)
Compound 0.00949 µM
  viability, T/C: 102% and 105% and 103%
Compound 0.03 µM
  viability, T/C: 92.8% and 87.9% and 89.1%
Compound 0.0949 µM
  viability, T/C: 103% and 84.3% and 92.5%
Compound 0.3 µM
  viability, T/C: 79.5% and 84.7% and 86%
Compound 0.949 µM
  viability, T/C: 78.4% and 84% and 94.5%
Compound 3 µM
  viability, T/C: 75.5% and 87.1% and 88.2%
Curve of compound
  IC50: > 3000 nM

## NC1CCC(NC2CC2c2ccccc2)CC1 (stereo unspecified) + CNC(C)C(=O)NC1CN(S(=O)(=O)c2cccc(S(=O)(=O)N3CCC4CCC(C(=O)NC(c5ccccc5)c5ccccc5)N4C(=O)C(NC(=O)C(C)NC)C3)c2)CCC2CCC(C(=O)NC(c3ccccc3)c3ccccc3)N2C1=O
Curve of first compound, second compound 0.00316 µM
  IC50: > 100 nM
Curve of first compound, second compound 0.01 µM
  IC50: > 100 nM
Curve of first compound, second compound 0.0316 µM
  IC50: > 100 nM
Curve of first compound, second compound 0.1 µM
  IC50: > 100 nM
Curve of first compound, second compound 0.316 µM
  IC50: > 100 nM
Curve of first compound, second compound 1 µM
  IC50: > 100 nM
Second compound 0.00316 µM, first compound 0.000316 µM
  viability, T/C: 119%
Second compound 0.00316 µM, first compound 0.001 µM
  viability, T/C: 118%
Second compound 0.00316 µM, first compound 0.00316 µM
  viability, T/C: 132%
Second compound 0.00316 µM, first compound 0.01 µM
  viability, T/C: 133%
Second compound 0.00316 µM, first compound 0.0316 µM
  viability, T/C: 131%
Second compound 0.00316 µM, first compound 0.1 µM
  viability, T/C: 119%
Second compound 0.01 µM, first compound 0.000316 µM
  viability, T/C: 119%
Second compound 0.01 µM, first compound 0.001 µM
  viability, T/C: 121%
Second compound 0.01 µM, first compound 0.00316 µM
  viability, T/C: 121%
Second compound 0.01 µM, first compound 0.01 µM
  viability, T/C: 124%
Second compound 0.01 µM, first compound 0.0316 µM
  viability, T/C: 128%
Second compound 0.01 µM, first compound 0.1 µM
  viability, T/C: 140%
Second compound 0.0316 µM, first compound 0.000316 µM
  viability, T/C: 116%
Second compound 0.0316 µM, first compound 0.001 µM
  viability, T/C: 118%
Second compound 0.0316 µM, first compound 0.00316 µM
  viability, T/C: 138%
Second compound 0.0316 µM, first compound 0.01 µM
  viability, T/C: 125%
Second compound 0.0316 µM, first compound 0.0316 µM
  viability, T/C: 127%
Second compound 0.0316 µM, first compound 0.1 µM
  viability, T/C: 127%
Second compound 0.1 µM, first compound 0.000316 µM
  viability, T/C: 121%
Second compound 0.1 µM, first compound 0.001 µM
  viability, T/C: 128%
Second compound 0.1 µM, first compound 0.00316 µM
  viability, T/C: 128%
Second compound 0.1 µM, first compound 0.01 µM
  viability, T/C: 128%
Second compound 0.1 µM, first compound 0.0316 µM
  viability, T/C: 128%
Second compound 0.1 µM, first compound 0.1 µM
  viability, T/C: 121%
Second compound 0.316 µM, first compound 0.000316 µM
  viability, T/C: 131%
Second compound 0.316 µM, first compound 0.001 µM
  viability, T/C: 113%
Second compound 0.316 µM, first compound 0.00316 µM
  viability, T/C: 118%
Second compound 0.316 µM, first compound 0.01 µM
  viability, T/C: 130%
Second compound 0.316 µM, first compound 0.0316 µM
  viability, T/C: 143%
Second compound 0.316 µM, first compound 0.1 µM
  viability, T/C: 124%
Second compound 1 µM, first compound 0.000316 µM
  viability, T/C: 122%
Second compound 1 µM, first compound 0.001 µM
  viability, T/C: 129%
Second compound 1 µM, first compound 0.00316 µM
  viability, T/C: 136%
Second compound 1 µM, first compound 0.01 µM
  viability, T/C: 131%
Second compound 1 µM, first compound 0.0316 µM
  viability, T/C: 137%
Second compound 1 µM, first compound 0.1 µM
  viability, T/C: 143%
